Experimental data reported in patent US7250394B2, “Treatment of glial tumors with glutamate antagonists” (priority 2001, dated 2007).

Assays:
[1] = test system: C6 glioma cells; assay: [3H]glutamate uptake in C6 subclones; format: cell-based, rat; conditions: 5 min
Method: Glutamate uptake was analyzed by mixing 0.4 μCi/ml L-[^3H]glutamate (specific activity 0.03 Ci/mmol) with 150 μM glutamate in a buffer containing […] NaCl, 1.5 mM K2HPO4, 2 MM MgCl2, 2 mM CaCl2, 10 mM HEPES and 10 mM glucose with pH 7.3 (ref 6). NaCl was replaced by choline chloride for sodium-free conditions. Cells were washed twice, then incubated in the uptake solution with various blockers for 5 min., followed by 3 washes with ice-cold buffer, and then dissolved in 0.3 N NaOH. The activity of [^3H]glutamate was detected with liquid scintillation counter (1209 Rackbeta, LKB Wallac, San Francisco, Calif.). Protein concentration was determined by using the DC protein assay kit from BioRad.

[2] = test system: C6 cells; assay: Glutamate release from C6 subclones (bioluminescence assay); format: cell-based, rat
Method: Confluent cultures were washed twice and incubated in fresh culture medium. Samples of the supernatant were collected at 1, 3 and 6 hours. […] Glutamate release from freshly prepared brain slices was imaged by preparing 300-μm slices by vibratome 5 days after tumor implantation. The sections were prepared in artificial CSF as described (Kang et al., “Astrocyte-Mediated Potentiation of Inhibitory Synaptic Transmission,”Nature Neurosci., 1:683–692 (1998), which is hereby incorporated in its entirety). After 15 to 30 min. incubation in CSF, the slices were transferred to microscope stage and immersed in the bioluminescence mixture (1 ml) at room temperature. To modify the bioluminescence mixture to be tolerated by live tissue, glycerol was removed using Hank's buffered salt solution as the base. The luminescence was imaged by an intensified CCD camera (Hamamatsu, C2400) attached to a BX-50 microscope with a 50 mm camera lens (Olympus). The relative light production over the tumor versus normal brain tissue was quantified. Light emission higher than a background threshold was superimposed upon a bright-field image of the same section obtained immediately after luminescence recordings. The brain slices were fixed overnight in 4% paraformaldehyde and stained with cresylviolet.

[3] = test system: cortical neurons; assay: Coculture of cortical neurons with C6Glu+ glioma aggregates, neuronal viability; format: cell-based, rat; conditions: pretreatment; 24 h coculture (10 μM per FIG. 1C)
Method: Glioma cell aggregates were produced by plating 100,000 C6Glu^+ or C6Glu^−cells in plates with non-adhesive substrate (ultra low cluster 3473; Costar, Cambridge, Mass.). Twenty-four hours later, the glioma aggregates were loaded with calcein AM (green, 2 μM, excitation 488 nm) and transferred to neuronal cultures. Cortical neuronal cultures were preloaded with the cell tracker Sytox 62 (white, 0.1 μM, excitation 647 nm).
To study the direct cellular interactions, the glioma clones were cocultured with cortical neurons (Id.). Twenty-four hours after adding aggregates of C6Glu^− cells to established neuronal cultures, 86±2% of the neurons remained viable (FIGS. 1C–D). In comparison, only 14±1% of neurons survived in sister cultures after addition of C6Glu^+ cell aggregates (FIGS. 1C–D).

[4] = test system: C6 cells; assay: Proliferation of C6 glioma cells in culture; format: cell-based, rat
Method: (§1) Ten-day-old cortical neurons were loaded with the calcium indicator, fluo-3 AM (5 μM, 1 h), and the fluorescence signal was detected by confocal microscopy (MRC1000, BioRad, Richmond, Calif.) as described (Lin et al., “Ga-Junction-Mediated Propagation and Amplification of Cell Injury,” Nature Neurosci., 1:494–500 (1998); Zhang et al., “Tamoxifen-Induced Enhancement of Calcium Signaling in Glioma and MCF-7 Breast Cancer Cells,” Cancer Res., 60:5395–5400 (2000), which are hereby incorporated in their entirety). 100 μl conditioned medium from the C6 clones was added to the culture (initial media volume was 300 μl). Proliferation of the C6 subclones was determined by cell counting or by the Alamar blue assay (Biosource, Camarillo, Calif.) and cellular invasiveness evaluated using Matrigel-coated transwell inserts as described (Zhang et al., “Direct Gap Junction Communication Between Malignant Glioma Cells and Astrocytes,” Cancer Res., 59:1994–2003 (1999), which is hereby incorporated in its entirety).

[5] = test system: C6Glu^+ cell implants; assay: C6Glu+ glioma implantation in striata of Wistar rats, tumor size 10 days after implantation; format: in vivo, rat
Method: Rats (male Wistar, 250–270 g) anesthetized with pentobarbital (50 mg/kg) were placed in a stereotactic frame and 1×10^4 C6 cells were injected at a depth of 6 mm in the right striata with a Hamilton syringe. Injection coordinates with regard to bregma were 0.5 mm posterior and 3.0 mm lateral. Fischer rats (170–200 g) were injected with 1×10^4 RG2 cells. In some experiments, the glioma cells were prelabeled with the cell tracker, CMFDA (2 μM, Molecular Probes, Eugene, Oreg.) (Lin et al., “Ga-Junction-Mediated Propagation and Amplification of Cell Injury,” Nature Neurosci., 1:494–500 (1998), which is hereby incorporated in its entirety). Ten days after implantation, the anesthetized rats were perfused with 4% paraformaldehyde in phosphate buffer. After post-fixation for 24 hours, the brains were sectioned into 50–500-μm slices by a vibratome (Kang et al., “AstrocyteMediated Potentiation of Inhibitory Synaptic Transmission,” Nature Neurosci., 1:682–692 (1998), which is hereby incorporated in its entirety). The slices were imaged using a Sony digital camera (DSC-S50) and tumor volume calculated using NIH Image software.
Based upon the above observations, it was investigated whether excitotoxic neuronal death accelerates tumor expansion. […]

[6] = test system: cultured cortical neurons; assay: Calcium measurement (fluo-3) in cortical neurons after conditioned medium from C6Glu+ cells; format: cell-based, rat; conditions: 10 μM
Method: as §1
After transfer of conditioned medium from C6Glu^+ cells to cultured cortical neurons that had been first loaded with the calcium indicator fluo-3, there was a rapid increase in the relative emission of fluo-3, indicating increased cytosolic calcium levels (FIG. 1B). […]

[7] = test system: TUNEL^+ neurons surrounding C6Glu^+ cell tumors; assay: TUNEL staining of degenerating neurons surrounding C6Glu+ tumors; format: in vivo, rat; conditions: five-day-old tumors; P<0.001 one-way ANOVA
Description: Polyclonal antibodies against glutamate transporters were supplied by and used as described by Rothstein et al., “Localization of Neuronal and Glial Glutamate Transporters,” Neuron, 13:713–725 (1994), which is hereby incorporated in its entirety. Neuronal death was visualized with the TUNEL technique (Oncor, Gaithersburg), and counterstained with hematoxilin and eosin (H&E) (Lin et al., “Ga-Junction-Mediated Propagation and Amplification of Cell Injury,” Nature Neurosci., 1, 494–500 (1998), which is hereby incorporated in its entirety). […] TUNEL^+ neurons within a distance of 200 μm from the tumor border were counted by a blinded observer. […]
To test the possibility that elevation of extracellular glutamate triggers excitotoxic neuronal death in normal brain tissue invaded by C6Glu^+ tumor cells, TUNEL (terminal deoxynucleotidyl-transferase-mediated dUTP-blotin nick end-labeling) staining was used to identify degenerating neurons (Lin et al., “Ga-Junction-Mediated Propagation and Amplification of Cell Injury,” Nature Neurosci., 1, 494–500 (1998), which is hereby incorporated in its entirety). Five-day-old tumors were evaluated to minimize indirect injury resulting from the very large tumors in animals with C6Glu^+ cell implants. […]

[8] = test system: RG2 glioma cells; assay: Proliferation of RG2 glioma cells in culture; format: cell-based, rat
[9] = 25 mg/kg i.p.; microdialysis; cited from earlier work
[10] = test system: RG2Glu^+ cell implants; assay: RG2Glu+ glioma implantation in Fischer rats, tumor volume; format: in vivo, rat; conditions: 25 mg/kg twice daily i.p., 10 d
Method: Rats (male Wistar, 250–270 g) anesthetized with pentobarbital (50 mg/kg) were placed in a stereotactic frame and 1×10^4 C6 cells were injected at a depth of 6 mm in the right striata with a Hamilton syringe. Injection coordinates with regard to bregma were 0.5 mm posterior and 3.0 mm lateral. Fischer rats (170–200 g) were injected with 1×10^4 RG2 cells. In some experiments, the glioma cells were prelabeled with the cell tracker, CMFDA (2 μM, Molecular Probes, Eugene, Oreg.) (Lin et al., “Ga-Junction-Mediated Propagation and Amplification of Cell Injury,” Nature Neurosci., 1:494–500 (1998), which is hereby incorporated in its entirety). Ten days after implantation, the anesthetized rats were perfused with 4% paraformaldehyde in phosphate buffer. After post-fixation for 24 hours, the brains were sectioned into 50–500-μm slices by a vibratome (Kang et al., “AstrocyteMediated Potentiation of Inhibitory Synaptic Transmission,” Nature Neurosci., 1:682–692 (1998), which is hereby incorporated in its entirety). The slices were imaged using a Sony digital camera (DSC-S50) and tumor volume calculated using NIH Image software. […]

[11] = patients with Parkinson's Disease, dementia, and spasticity; cited from earlier work

O=C(O)[C@@H]1CN[C@@H](C(=O)O)C1 (relative stereo) [trans-PDC, trans-pyrrolidine-2,4-dicarboxylate]
uptake of [3H]glutamate in C6Glu+ cells ([1]; 200 μM): not affected | [3H]glutamate uptake in C6Glu- cells [1]: significantly reduced | [3H]glutamate uptake in C6WT cells [1]: significantly reduced | glutamate release from C6 cells ([2]; 6-h period): not affected

C[C@]12N[C@H](Cc3ccccc31)c1ccccc12 [MK801, dizocilpine]
neuronal loss in coculture with C6Glu+ cell aggregates [3]: attenuated the neuronal loss | proliferation rate of C6 cells in vitro ([4]; 10 or 100 μM per FIG. 4B): did not reduce | tumor size ([5]; 1 mg/kg twice daily i.p., 10 days after injection of C6Glu+ cells, vehicle 106±19 mm^3, P<0.001): 54.9±11 mm^3 | increase in fluo-3 emission (cytosolic calcium) in cortical neurons [6]: blocked | number of TUNEL+ neurons surrounding C6Glu+ cell tumors [7]: reduced

N[C@H](C(=O)O)c1ccc(C(=O)O)cc1 [S-4CPG, (s)-4-carboxyphenylglycine]
glutamate release from C6 cells ([2]; 100 μM, any of the three clones): no effect

N[C@@H](CSSC[C@H](N)C(=O)O)C(=O)O [cystine]
glutamate release from C6 cells ([2]; addition of extracellular cystine, any of the three clones): no effect

CC12CC3CC(C)(C1)CC(N)(C3)C2 [memantine]
proliferation of RG2 glioma cells ([8]; 100 μM or higher): significant reduction | proliferation of RG2 glioma cells ([8]; low concentrations): did not reduce | peak concentrations in the central nervous system [9]: 1 to 2 µM | tumor volume smaller than vehicle-treated rats [10]: 26% | proliferation of cultured C6Glu+ cells ([4]; 100 μM or higher): significant reduction | proliferation of cultured C6Glu+ cells ([4]; low concentrations): did not reduce | growth of C6Glu+ tumors ([5]; 10 d after implantation, P<0.001 (FIG. 6D)): effectively restricted the growth | side effects on prolonged administration [11]: few side effects
